Laboratory results reported in patent US9817000B2, “Method for identifying compounds that modulate a T2R taste receptor” (The Regents of the University of California, priority 1999, dated 2017).

Columns and labels:
mT2R5 = molecular target: T1, mT2R5 (Mus musculus, UniProt Q9JKT4); experiment: FURA-2 [Ca2+]i imaging in HEK-293 cells expressing Gα15 and rho-mT2R5 (taster, DBA/2 allele); format: cell-based
T1 construct: expressed in transfected cells; host or cells: modified HEK-293 cells (PEAKrapid) expressing Gα15; pEAK10 vector
T1 sequence (Q9JKT4 1-300): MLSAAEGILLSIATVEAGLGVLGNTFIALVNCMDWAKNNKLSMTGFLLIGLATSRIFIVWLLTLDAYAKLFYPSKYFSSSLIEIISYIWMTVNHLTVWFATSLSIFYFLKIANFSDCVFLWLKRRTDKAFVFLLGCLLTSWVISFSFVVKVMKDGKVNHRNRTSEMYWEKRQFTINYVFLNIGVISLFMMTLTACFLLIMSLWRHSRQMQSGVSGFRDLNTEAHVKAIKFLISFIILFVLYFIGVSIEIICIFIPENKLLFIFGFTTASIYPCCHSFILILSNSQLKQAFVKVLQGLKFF
Description: (§1) In this system, receptor activation leads to increases in intracellular calcium [Ca2+]i, which can be monitored at the single cell level using the FURA-2 calcium-indicator dye (Tsien et al., Cell Calcium 6:145-157 (1985)). To test and optimize Gα15 coupling, two different GPCRs, a Gαi-coupled μ-opioid receptor (Reisine, Neuropharm. 34:463-472 (1995)) and a Gαq-coupled mGluR1 receptor (Masu et al., Nature 349:760-765 (1991)), were used. Transfection of these receptors into HEK-293 cell produced robust, agonist-selective, and Gα15-dependent Ca^2+ responses (FIG. 1).
(§2) A number of studies have shown that many GPCRs, in particular sensory receptors, require specific “chaperones” for maturation and targeting through the secretory pathway (Baker et al., Embo J 13:4886-4895 (1994); Dwyer et al., Cell 93:455-466 (1998)). Recently, Krautwurst et al. (Cell 95:917-926 (1998)) generated chimeric receptors consisting of the first 20 amino acids of rhodopsin and various rodent olfactory receptors. These were targeted to the plasma membrane and functioned as odorant receptors in HEK-293 cells. To determine whether rhodopsin sequences can also help target T2Rs to the plasma membra, rhodopsin-T2R chimeras (rho-T2Rs) were constructed. […] Similar results were obtained with 11 human and 16 rodent T2Rs (see below). To further enhance the level of T2R expression, rho-T2Rs were placed under the control of a strong EF-1α promoter, and introduced as episomal plasmids into modified HEK-293 cells expressing Gα15 (pEAKrapid cells).
(§3) A bridge overlap PCR extension technique was used to generate rho-T2R chimeras, which contain the first 39 amino acids of bovine rhodopsin in frame with human and rodent T2R coding sequences (Mehta and Singh, Biotechniques 26:1082-1086 (1999). All receptors were cloned into a pEAK10 mammalian expression vector (Edge Biosystems, MD). Modified HEK-293 cells (PEAK^rapid cells; Edge BioSystems, MD) were grown and maintained at 37° C. in UltraCulture medium (Bio Whittaker) supplemented with 5% fetal bovine serum, 100 μg/ml Gentamycin sulphate (Fisher), 1 μg/ml Amphotericin B and 2 mM GlutaMax I (Lifetechnologies). For transfection, cells were seeded onto matrigel coated 24-well culture plates or 35 mm recording chambers. After 24 h at 37° C., cells were washed in OptiMEM medium (Lifetechnologies) and transfected using LipofectAMINE reagent (Lifetechnologies). Transfection efficiencies were estimated by co-transfection of a GFP reporter plasmid, and were typically >70%. Immunofluoresence staining, and activity assays were performed 36-48 h after transfection.
(§4) Transfected cells were washed once in Hank's balanced salt solution with 1 mM sodium pyruvate and 10 mM HEPES, pH 7.4 (assay buffer), and loaded with 2 μM FURA-2 AM (Molecular Probes) for 1 h at room temperature. The loading solution was removed and cells were incubated in 200 μl of assay buffer for 1 h to allow the cleavage of the AM ester. For most experiments, 24-well tissue culture plates containing cells expressing a single rho-T2R were stimulated with 200 μl of a 2× tastant solution (see next section). [Ca^2+]i changes were monitored using a Nikon Diaphot 200 microscope equipped with a 10×/0.5 fluor objective with the TILL imaging system (T.I.L.L Photonics GmbH). Acquisition and analysis of the fluorescence images used TILL-Vision software. Generally, [Ca^2+]i was measured for 80-120 s by sequentially illuminating cells for 200 ms at 340 nm and 380 nm and monitoring the fluorescence emission at 510 nm using a cooled CCD camera. The F340/F380 ratio was analyzed to measure [Ca^2+]i.
(§5) Kinetics of activation and deactivation were measured using a bath perfusion system. Cells were seeded onto a 150 μl microperfusion chamber, and test solutions were pressure-ejected with a picospritzer apparatus (General Valve, Inc.). Flow-rate was adjusted to ensure complete exchange of the bath solution within 4-5 s. […]

[1] = molecular target: T2, mT2R5 coupling to gustducin (Mus musculus, UniProt Q9JKT4); experiment: Tastant-induced GTPγS binding to gustducin with insect cell membranes containing rho-mT2R5; format: biochemical; details: 1 mM
T2 construct: infectious Bacmid containing rhodopsin tagged mT2R5 (DBA/2-allele) was produced using the Bac-to-Bac system; rhodopsin tag (rho); made in house; host or cells: insect larval cells infected with recombinant Bacmid (Bac-to-Bac baculovirus system); membrane preparation
T2 sequence (Q9JKT4 1-300): T1 sequence (Q9JKT4 1-300)
Protocol: To investigate the selectivity of T2R-G-protein coupling, mT2R5 was chosen for study because its activation by cycloheximide recapitulates mouse taste responses. Rho-tagged mT2R5 and gustducin were prepared using a baculovirus expression system. mT2R5-containing membranes were incubated with various purified G-proteins, including gustducin, and measured tastant-induced GTP-γS binding (Hoon et al., Biochem J 309:629-636 (1995)). Specifically, infectious Bacmid containing rhodopsin tagged mT2R5 (DBA/2-allele) was produced using the Bac-to-Bac system (Lifetechnologies, MD). Insect larval cells were infected for 60 h with recombinant Bacmid and membranes were prepared as described previously (Ryba and Tirindelli, J Biol Chem, 270:6757-6767 (1995)). Peripheral proteins were removed by treatment with 8 M urea and membranes were resuspended in 10 mM HEPES pH7.5, 1 mM EDTA and 1 mM DTT. The expression of rho-mT2R5 was assessed by Western blot using mAb B6-30 and quantitated by comparison with known amounts of rhodopsin. Approximately 300 pmol of rho-mT2R5 could be obtained from 2×10^8 infected cells. Gustducin and Gβ1γ8 heterodimers were isolated as described previously (Hoon et al., Biochem J 309:629-636 (1995); Ryba and Tirindelli, J Biol Chem, 270:6757-6767 (1995)). Receptor-catalyzed exchange of GDP for GTPγS on gustducin and other G-protein α-subunits was measured in the presence of 10 nM rho-mT2R5, 100 μM GDP, and 20 μM Gβ1γ8. All measurements were made at 15-minute time points, and reflect the initial rate of GTPγS binding.

hT2R4 = molecular target: T3, hT2R4 (Homo sapiens, UniProt Q9NYW5); experiment: FURA-2 [Ca2+]i imaging in HEK-293 cells expressing Gα15 and rho-hT2R4; format: cell-based; details: high concentrations
T3 construct: Full-length hT2Rs were isolated by PCR amplification of genomic DNA; expressed in transfected cells; host or cells: HEK-293 cells (PEAKrapid) expressing Gα15
T3 sequence (Q9NYW5 1-299): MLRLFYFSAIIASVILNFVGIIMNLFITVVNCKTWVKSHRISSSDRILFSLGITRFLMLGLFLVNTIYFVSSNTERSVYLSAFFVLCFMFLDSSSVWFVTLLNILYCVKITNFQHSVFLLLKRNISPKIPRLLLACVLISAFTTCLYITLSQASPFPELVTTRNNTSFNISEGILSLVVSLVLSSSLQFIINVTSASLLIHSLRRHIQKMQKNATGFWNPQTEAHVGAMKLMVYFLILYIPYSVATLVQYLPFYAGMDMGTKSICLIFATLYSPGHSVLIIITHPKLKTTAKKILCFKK
Description: as §1, §2, §3, §4, §5

mT2R8 = molecular target: T4, mT2R8 (Mus musculus, UniProt Q9JKT3); experiment: FURA-2 [Ca2+]i imaging in HEK-293 cells expressing Gα15 and rho-mT2R8; format: cell-based; details: high concentrations
T4 construct: expressed in transfected cells; host or cells: HEK-293 cells (PEAKrapid) expressing Gα15
T4 sequence (Q9JKT3 1-297): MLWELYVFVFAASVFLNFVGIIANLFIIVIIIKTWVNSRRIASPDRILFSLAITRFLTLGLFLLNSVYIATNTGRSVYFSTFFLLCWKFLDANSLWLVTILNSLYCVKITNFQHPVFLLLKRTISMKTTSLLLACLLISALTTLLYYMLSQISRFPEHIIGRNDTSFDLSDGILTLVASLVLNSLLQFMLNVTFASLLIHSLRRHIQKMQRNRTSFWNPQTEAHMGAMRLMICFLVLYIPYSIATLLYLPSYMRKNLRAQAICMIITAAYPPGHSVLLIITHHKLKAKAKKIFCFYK
Description: as §1, §2, §3
as §4, with “For most experiments, 24-well tissue culture plates containing cells expressing a single rho-T2R were stimulated with 200 μl of a 2× tastant solution (see next section).” left out
Kinetics of activation and deactivation were measured using a bath perfusion system. […]

mGluR1 receptor = molecular target: T5, mGluR1 receptor (Rattus norvegicus, UniProt P23385); experiment: FURA-2 [Ca2+]i imaging in HEK-293 cells with Gα15 and mGluR1 receptor; format: cell-based; details: 20 μM
T5 construct: expressed in transfected cells; host or cells: HEK-293 cells containing Gα15
Description: as §1

μ opioid receptor = molecular target: T6, μ opioid receptor (Homo sapiens, UniProt P35372); experiment: FURA-2 [Ca2+]i imaging in HEK-293 cells with Gα15 and μ opioid receptor; format: cell-based; details: 10 μM
T6 construct: expressed in transfected cells; host or cells: HEK-293 cells containing Gα15
Description: as §1

T5 sequence (P23385 19-1199): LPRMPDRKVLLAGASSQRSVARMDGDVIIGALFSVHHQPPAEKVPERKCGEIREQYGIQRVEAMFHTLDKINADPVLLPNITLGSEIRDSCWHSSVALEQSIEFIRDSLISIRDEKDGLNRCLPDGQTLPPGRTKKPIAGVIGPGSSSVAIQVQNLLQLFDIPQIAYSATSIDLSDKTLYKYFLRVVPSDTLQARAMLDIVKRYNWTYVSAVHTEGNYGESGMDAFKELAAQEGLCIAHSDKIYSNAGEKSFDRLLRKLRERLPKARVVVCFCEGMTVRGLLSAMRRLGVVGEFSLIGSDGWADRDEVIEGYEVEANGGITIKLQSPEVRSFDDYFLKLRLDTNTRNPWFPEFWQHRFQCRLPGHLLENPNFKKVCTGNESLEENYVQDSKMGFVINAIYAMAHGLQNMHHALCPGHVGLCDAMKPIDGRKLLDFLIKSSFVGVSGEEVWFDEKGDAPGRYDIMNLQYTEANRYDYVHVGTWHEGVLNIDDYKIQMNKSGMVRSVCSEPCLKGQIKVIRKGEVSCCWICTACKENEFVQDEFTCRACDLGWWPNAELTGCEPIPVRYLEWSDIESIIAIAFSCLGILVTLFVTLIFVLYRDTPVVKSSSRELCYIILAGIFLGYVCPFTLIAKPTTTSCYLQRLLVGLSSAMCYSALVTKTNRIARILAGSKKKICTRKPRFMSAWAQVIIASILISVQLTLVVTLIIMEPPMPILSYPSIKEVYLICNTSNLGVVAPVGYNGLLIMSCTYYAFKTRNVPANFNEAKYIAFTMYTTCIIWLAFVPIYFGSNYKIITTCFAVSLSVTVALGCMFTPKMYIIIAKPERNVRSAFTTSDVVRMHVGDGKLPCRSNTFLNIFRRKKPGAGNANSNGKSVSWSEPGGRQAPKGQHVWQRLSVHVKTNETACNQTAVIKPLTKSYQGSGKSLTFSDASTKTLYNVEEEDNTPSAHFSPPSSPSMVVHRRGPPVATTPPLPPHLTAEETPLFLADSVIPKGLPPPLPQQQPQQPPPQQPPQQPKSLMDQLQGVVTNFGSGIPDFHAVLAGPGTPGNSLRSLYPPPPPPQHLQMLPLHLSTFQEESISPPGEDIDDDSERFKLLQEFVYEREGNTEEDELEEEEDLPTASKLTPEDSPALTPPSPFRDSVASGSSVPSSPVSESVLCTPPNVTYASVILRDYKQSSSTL
T6 sequence (P35372 whole entry, species assumed): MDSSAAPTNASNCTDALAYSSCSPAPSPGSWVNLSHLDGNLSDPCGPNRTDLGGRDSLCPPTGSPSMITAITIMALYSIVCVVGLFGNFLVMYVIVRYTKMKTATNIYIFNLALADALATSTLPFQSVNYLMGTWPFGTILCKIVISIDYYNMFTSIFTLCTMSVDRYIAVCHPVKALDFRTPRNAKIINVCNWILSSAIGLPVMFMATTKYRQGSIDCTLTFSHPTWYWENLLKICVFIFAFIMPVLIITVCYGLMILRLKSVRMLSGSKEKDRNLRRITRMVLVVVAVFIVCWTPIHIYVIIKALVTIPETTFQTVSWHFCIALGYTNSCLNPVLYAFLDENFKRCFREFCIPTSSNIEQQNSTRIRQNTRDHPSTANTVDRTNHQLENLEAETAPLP

Structure (SMILES): O=C(O)/C=C/c1ccc(O)c(O)c1 [caffeic acid]
- [Ca2+]i response to tastant (mT2R5; 2 mM): not observed

Structure (SMILES): CN1[C@@H]2CC[C@H]1C[C@@H](OC(=O)C(CO)c1ccccc1)C2 (stereo partly shown) [atropine]
- gustducin activation [1]: not
- [Ca2+]i response to tastant (mT2R5; 5 mM): not observed

Structure (SMILES): NC(=S)Nc1ccccc1 [phenyl thiocarbamide]
- gustducin activation [1]: not
- [Ca2+]i response to tastant (mT2R5; 3 mM): not observed

Structure (SMILES): C=C[C@H]1C[N@@]2CC[C@H]1C[C@H]2[C@H](O)c1ccnc2ccc(OC)cc12 [quinine]
- gustducin activation [1]: not

Structure (SMILES): O=C1NS(=O)(=O)c2ccccc21 [saccharin]
- gustducin activation [1]: not
- [Ca2+]i response to tastant (mT2R5; 10 mM): not observed

Structure (SMILES): CCCc1cc(=O)[nH]c(=S)[nH]1 [6-n-propyl thiouracil]
- gustducin activation [1]: not
- [Ca2+]i response to tastant (mT2R5; 10 mM): not observed
- [Ca2+]i response (hT2R4): also responded
- receptor activation (mT2R8): activated

Structure (SMILES): N[C@@]1(C(=O)O)CC[C@H](C(=O)O)C1 (racemic) [ACPD, trans (±) 1-amino-1,3 cyclopentane dicarboxylic acid]
- [Ca2+]i response (mGluR1 receptor): increase in [Ca2+]i

Structure (SMILES): C[C@@H](NC(=O)[C@@H](N)Cc1ccc(O)cc1)C(=O)NCC(=O)N(C)[C@@H](Cc1ccccc1)C(=O)NCCO [DAMGO]
- [Ca2+]i response (μ opioid receptor): increase in [Ca2+]i

Structure (SMILES): CC(=O)OC[C@H]1O[C@@](COC(C)=O)(O[C@H]2O[C@H](COC(C)=O)[C@@H](OC(C)=O)[C@H](OC(C)=O)[C@H]2OC(C)=O)[C@@H](OC(C)=O)[C@@H]1OC(C)=O [sucrose octaacetate]
- gustducin activation [1]: not
- [Ca2+]i response to tastant (mT2R5; 3 mM): not observed

Structure (SMILES): COc1cc2c(cc1OC)[C@@]13CCN4CC5=CCO[C@H]6CC(=O)N2[C@H]1[C@H]6[C@H]5C[C@H]43 [brucine]
- gustducin activation [1]: not
- [Ca2+]i response to tastant (mT2R5; 5 mM): not observed

Structure (SMILES): Cn1c(=O)c2c(ncn2C)n(C)c1=O [caffeine]
- gustducin activation [1]: not
